In one assay the target is T1, D(4) dopamine receptor (Homo sapiens, UniProt P21917).
T1 sequence (P21917 whole entry): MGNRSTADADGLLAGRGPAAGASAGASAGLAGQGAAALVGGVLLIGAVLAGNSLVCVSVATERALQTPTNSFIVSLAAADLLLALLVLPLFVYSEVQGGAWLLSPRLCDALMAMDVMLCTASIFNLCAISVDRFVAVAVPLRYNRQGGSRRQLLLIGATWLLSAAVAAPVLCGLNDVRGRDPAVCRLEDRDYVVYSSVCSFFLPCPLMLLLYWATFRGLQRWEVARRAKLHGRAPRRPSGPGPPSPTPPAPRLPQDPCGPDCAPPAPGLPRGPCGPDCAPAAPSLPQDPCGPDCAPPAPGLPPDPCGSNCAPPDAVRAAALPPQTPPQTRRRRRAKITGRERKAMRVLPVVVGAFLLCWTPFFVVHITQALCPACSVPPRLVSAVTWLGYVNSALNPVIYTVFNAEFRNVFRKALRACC
Briefly: Displacement of [3H]N-methylspiperone from human dopamine D4 receptor expressed in human HEK293 cell membrane for 1 hr by liquid scintillation counting analysis. The format is cell membranes. A general note: In a radioligand displacement assay an active substance lowers the binding of a labelled ligand.

The next assay addresses D(3) dopamine receptor (Homo sapiens, UniProt P35462). Briefly: biochemical.
For the next assay, the target named is D(2) dopamine receptor (Homo sapiens, UniProt P14416). Briefly: Displacement of [3H]N-methylspiperone from human dopamine D2 receptor expressed in human HEK293 cell membrane for 1 hr by liquid scintillation counting analysis. The format is cell membranes.
Chain of D(2) dopamine receptor (P14416 whole entry): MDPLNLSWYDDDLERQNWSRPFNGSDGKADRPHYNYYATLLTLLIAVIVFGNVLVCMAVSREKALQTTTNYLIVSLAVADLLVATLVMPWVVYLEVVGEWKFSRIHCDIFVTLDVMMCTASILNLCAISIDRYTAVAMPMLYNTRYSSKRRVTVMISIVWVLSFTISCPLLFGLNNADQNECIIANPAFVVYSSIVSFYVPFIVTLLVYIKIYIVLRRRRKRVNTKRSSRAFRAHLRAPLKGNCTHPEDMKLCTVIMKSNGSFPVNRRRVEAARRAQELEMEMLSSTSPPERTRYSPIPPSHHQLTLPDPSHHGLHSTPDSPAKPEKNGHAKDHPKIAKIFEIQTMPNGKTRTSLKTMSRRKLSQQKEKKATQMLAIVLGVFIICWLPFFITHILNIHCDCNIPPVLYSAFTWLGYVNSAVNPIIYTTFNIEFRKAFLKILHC

pKi: −log10 of the molar value.

Chain of D(3) dopamine receptor (P35462 whole entry): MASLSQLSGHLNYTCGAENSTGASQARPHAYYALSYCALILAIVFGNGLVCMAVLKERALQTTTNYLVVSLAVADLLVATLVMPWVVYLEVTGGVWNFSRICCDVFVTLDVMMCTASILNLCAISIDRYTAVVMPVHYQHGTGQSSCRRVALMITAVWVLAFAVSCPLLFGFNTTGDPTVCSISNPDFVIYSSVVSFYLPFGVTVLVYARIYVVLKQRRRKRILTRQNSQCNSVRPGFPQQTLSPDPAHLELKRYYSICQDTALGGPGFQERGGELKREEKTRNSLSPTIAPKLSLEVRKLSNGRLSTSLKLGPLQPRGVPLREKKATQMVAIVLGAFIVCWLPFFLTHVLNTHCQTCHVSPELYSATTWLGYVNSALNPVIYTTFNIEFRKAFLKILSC
Description for D(3) dopamine receptor: Displacement of [3H]N-methylspiperone from human dopamine D3 receptor expressed in human HEK293 cell membrane for 1 hr by liquid scintillation counting analysis

`O=C(NCCC(CF)N1CCN(c2cccc(Cl)c2Cl)CC1)c1cc2ccccc2o1` (stereo not drawn): the pKi at D(4) dopamine receptor is less than 5.52; on D(3) dopamine receptor, 6.25; at D(2) dopamine receptor it was 5.13.

Broadly, the pKi is the negative decadic logarithm of the Ki, by convention in mol/L.

The values above are taken from ChEMBL document CHEMBL3286326, “Chiral Resolution and Serendipitous Fluorination Reaction for the Selective Dopamine D3 Receptor Antagonist BAK2-66” (ACS Med Chem Lett, 2014).
